According to patent US20110118288A1, “PHARMACEUTICAL COMPOSITION FOR TREATING HYPERTENSION AND METABOLIC SYNDROME AND USE THEREOF” (priority 2008, published 2011):

Columns and labels:
[1] = tested on: spontaneously hypertensive rats; experiment: Carotid intima-media thickness in spontaneously hypertensive rats; format: in vivo, rat; conditions: SHR carotid artery, high sugar and high fat diets, intragastric once every day for six months
Description: Each group was given intragastric administration once every day and fed with high sugar and high fat diets for six months. During the experiment, the diet, survival status and behaviors of the animals were recorded, and the animals were weighed once every day and the doses of administration were adjusted according to the body weights. After the animal was anesthetized and fixed, Even's blue (60 mg/kg) dye was injected via a femoral artery. After 30 minutes, myocardial perfusion was performed with 0.9% physiological saline as a perfusate at a perfusion pressure of 13.3 kPa until the effluent became clear. Then, 4% paraformaldehyde in physiological saline was perfused for 10 minutes for in situ fixation (the perfusion pressure was the same as above). The section of Even's blue-stained carotid artery was taken and further fixed with formalin solution, and three parts, i.e. the front, the middle and the rear parts, respectively, were sampled and embedded in paraffin, and then sliced discontinuously to obtain 8 to 10 layers, which were stained with HE. Three vascular sections were randomly selected and input into a computer image processing system so as to perform a computerized image measurement, thereby calculating the intima-media thickness.

[2] = tested on: spontaneously hypertensive rats; experiment: Urinary microalbumin (bromophenol blue absorbance) in spontaneously hypertensive rats; format: in vivo, rat; conditions: SHR, high sugar and high fat diets, intragastric once every day, twelve-hour overnight urine; time point not given in table
Description: Model control group: intragastric administration of same volume of physiological saline; […] L group: 5 mg/(kg·d) of losartan; R group: 1 mg/(kg·d) of rosuvastatin group; L+R group: 5 mg/(kg·d) of losartan+1 mg/(kg·d) of rosuvastatin calcium; P+R group: 1.5 mg/(kg·d) of pioglitazone+1 mg/(kg·d) of rosuvastatin calcium; L+P group: 5 mg/(kg·d) of losartan+1.5 mg/(kg·d) of pioglitazone; […] Each group was given intragastric administration once every day and fed with high sugar and high fat diets for six months. During the experiment, the diet, survival status and behaviors of the animals were recorded, and the animals were weighed once every day and the doses of administration were adjusted according to the body weights. 1. 10% (v/v) glacial acetic acid solution (pH 2.8). 2. 0.303 mol/L glycine-glacial acetic acid buffer solution (pH 3.0): 22.72 g of glycine was weighed and diluted with 10% glacial acetic acid solution to 1000 ml, to which 100 mg of NaN3 was added. The buffer solution can be kept for one year at room temperature after sealed. 3. Bromophenol blue (1.924 mmol/L) stock solution: 257.36 mg of BPB was precisely weighed and dissolved to 200 ml with absolute ethanol. The stock solution can be kept for one year in a refrigerator at 4° C. 4. Bromophenol blue (0.231 mmol/L) developing agent: to 60 ml of BPB stock solution, 2.5 ml Triton X-100 was added, and then diluted to 500 ml with glycine-glacial acetic acid buffer solution. The developing agent can be kept for one year at room temperature after sealed. Collection and detection of samples: rats were taken out and fed in a metabolic cage at the fourth week, the eighth week, the twelfth week and the sixteenth week, respectively, and twelve-hour overnight urinary collection was performed. Urinary amounts were precisely recorded. 4 ml of urine was sampled, treated with sodium azide, and centrifuged at 2000 r/min for 10 min.

[3] = tested on: spontaneously hypertensive rats; experiment: Cardiac hypertrophy (left ventricular weight/body weight) in spontaneously hypertensive rats; format: in vivo, rat; conditions: SHR, after ten weeks of intragastric administration once every day
Description: Each group was given intragastric administration once every day for ten weeks. During the experiment, the diet, survival status and behaviors of the animals were recorded, and the animals were weighed once every day and the doses of administration were adjusted according to the body weights. Animals were sacrificed after ten weeks, and their hearts were taken out to determine the weights of left ventricles and calculate left ventricular indexes. After being sacrificed with 10% potassium chloride (2 mmol/L, 1 ml/rat), the rats were weighed. Heart was taken out and aortas and connective tissues outside of the heart were removed. The heart was cleaned by washing, dried with a filter paper, and weighed. The left ventricular was weighed after the atria were removed, and a ratio of left ventricular weight to body weight was calculated.

[4] = tested on: spontaneously hypertensive rats; experiment: Tail arterial blood pressure of conscious spontaneously hypertensive rats; format: in vivo, rat; conditions: for blood pressure, after treatment, eighth week / blood pressure, after treatment, fifth week / blood pressure, after treatment, first week / blood pressure, after treatment, third week: SHR, intragastric once every day, 2-5 h after administration; for blood pressure, before treatment: spontaneously hypertensive rats, baseline before treatment, n = 11
Description: Model control group: intragastric administration of same volume of physiological saline; P group: 0.5 mg/(kg·d) of pioglitazone; L group: 5 mg/(kg·d) of losartan; R group: 0.5 mg/(kg·d) of rosuvastatin calcium; L+R group: 5 mg/(kg·d) of losartan+0.5 mg/(kg·d) of rosuvastatin calcium; P+R group: 0.5 mg/(kg·d) of pioglitazone+0.5 mg/(kg·d) of rosuvastatin calcium; L+P group: 5 mg/(kg·d) of losartan+0.5 mg/(kg·d) of pioglitazone; […] Each group was given intragastric administration once every day for ten weeks. During the experiment, the diet, survival status and behaviors of the animals were recorded, and the animals were weighed once every day and the doses of administration were adjusted according to the body weights. Animals were sacrificed after ten weeks, and their hearts were taken out to determine the weights of left ventricles and calculate left ventricular indexes. Temperature was controlled between 18° C. and 22° C., humidity was controlled between 45% and 65%, and indoor natural light was used. Tail arterial blood pressure of a conscious rat was measured with Intelligent Non-invasive Blood Pressure Monitor BP-2006A (provided by Beijing Softron Co., Ltd.). Blood pressures were measured five times between two and five hours after intragastric administration in the first week, the third week, the fifth week and the eighth week, respectively. The average value of the blood pressures was used as the blood pressure of the sample.

[5] = tested on: metabolic syndrome patients; experiment: Treatment of patients suffered from metabolic syndrome (FBG, FINS, HbAlC, TC/HDLC, Fg); format: in vivo, human
Excerpt: Sixth-four metabolic syndrome patients were selected from those received treatment in Linyi People's Hospital from March 2007 to June 2008, and randomly divided into a control group and an experimental group. Control group: twenty-one males and eleven females, whose ages were between 61 and 72 and whose body mass indexes (BMI) were between 26 and 30; Experimental group: nineteen males and thirteen females, whose ages were between 62 and 70 and whose body mass indexes (BMI) were between 25.5 and 31; Before the treatment, all patients were subjected to blood lipids (including total cholesterol (TC), high-density lipid cholesterol (HDLC)) analysis, and detection of glycated hemoglobin (HbAlC), fasting blood glucose (FBG), fasting insulin (FINS) and fibrinogen (Fg). […] After eight weeks of continuous treatment, all of the above parameters were re-determined, in which blood glucose was determined with hexokinase method, blood lipid was determined with esterase method, fibrinogen was determined with coagulation method and chromogenic substrate assay, HbAlC was determined with chromatography, and fasting insulin was determined with chemiluminescence immunoassay. Statistical analysis: SPSS software was employed, and test of significance was performed by using a paired sample t test.

[6] = once every day, after eight weeks

Row | Structure (SMILES) | Maximum intima thickness [1] | Ratio of intima to media thickness [1] | urinary microalbumin, Absorbance A (600 nm) [2] | Left ventricular weight [3] | Left ventricular weight/body weight (×10^-3) [3] | blood pressure, after treatment, eighth week [4] | blood pressure, after treatment, fifth week [4] | blood pressure, after treatment, first week [4] | blood pressure, after treatment, third week [4] | blood pressure, before treatment [4] | FBG, before treatment ([5]; before treatment) | FINS, before treatment ([5]; before treatment) | Fg, before treatment ([5]; before treatment) | HbAlC, before treatment ([5]; before treatment) | TC/HDLC, before treatment ([5]; before treatment) | FBG, after treatment [5, 6] | FINS, after treatment [5, 6] | Fg, after treatment [5, 6] | HbAlC, after treatment [5, 6] | TC/HDLC, after treatment [5, 6]
1 | CCCCc1nc(Cl)c(CO)n1Cc1ccc(-c2ccccc2-c2nn[nH]n2)cc1 [L group, losartan] | 0.0926 mm | 1.8055 | 0.6132 | 0.873 g | 2.90 ×10^-3 | 156 mmHg | 155 mmHg | 168 mmHg | 162 mmHg | 171 mmHg | – | – | – | – | – | – | – | – | – | –
2 | CCc1ccc(CCOc2ccc(CC3SC(=O)NC3=O)cc2)nc1 (stereo not shown) [P group, pioglitazone] | 0.0958 mm | 1.8325 | 0.5714 | 0.986 g | 3.30 ×10^-3 | 172 mmHg | 171 mmHg | 172 mmHg | 168 mmHg | 172 mmHg | 7.11 mmol/L | 31.5 mlU/L | 426.3 mg/dL | 6.92% | 4.25 | 6.69 mmol/L | 24.36 mlU/L | 390.8 mg/dL | 6.33% | 3.84
3 | CC(C)c1nc(N(C)S(C)(=O)=O)nc(-c2ccc(F)cc2)c1/C=C/[C@@H](O)C[C@@H](O)CC(=O)O [R group, rosuvastatin calcium] | 0.1153 mm | 2.0754 | 0.5672 | 0.960 g | 3.16 ×10^-3 | 169 mmHg | 170 mmHg | 166 mmHg | 168 mmHg | 168 mmHg | – | – | – | – | – | – | – | – | – | –
